Assay results published in US20080292584A1 (priority 2005, published 2008).
Values joined by “and” are separate entries in the source; they are usually repeats but may differ in a detail not shown here. Identical values can stand only once.

Tests used:
CYP2E1 = CYP2E1 (Homo sapiens, UniProt P05181); assay: Metabolism of metaxalone by expressed recombinant human CYP2E1 at 5 or 20 pmol (Example 4); conditions: for percent turnover / % Turnover Mean / [metaxalone] Mean / % Turnover % / [metaxalone]: 60 min; for % Turnover % / [metaxalone]: single replicates, listed as Metaxalone
CYP2C9 = CYP2C9 (Homo sapiens, UniProt P11712); assay: Metabolism of metaxalone by expressed recombinant human CYP2C9 at 5 or 20 pmol (Example 4); conditions: for % Turnover Mean / [metaxalone] Mean / % Turnover % / [metaxalone]: 60 min; for % Turnover % / [metaxalone]: single replicates, listed as Metaxalone
Description: For CYP2C9 and CYP2D6, SUPERSOMES singly-expressing different allelic variants of the cytochrome p450 isozyme were commercially available. For each of CYP2C9 and CYP2D6, only the *1 allele was tested in these experiments. […]

CYP3A4 = CYP3A4 (Homo sapiens, UniProt P08684); assay: Metabolism of metaxalone by expressed recombinant human CYP3A4 at 5 or 20 pmol (Example 4); conditions: for percent turnover / % Turnover Mean / [metaxalone] Mean / % Turnover % / [metaxalone]: 60 min; for % Turnover % / [metaxalone]: single replicates, listed as Metaxalone
CYP2D6 [1] = target: T1, CYP2D6 (Homo sapiens, UniProt P10635); assay: Induction/inhibition of CYP2D6 activity in cryopreserved human hepatocytes (dextromethorphan)
Text: (§1) Hepatocytes from three human donors were obtained from a cryopreserved hepatocyte bank (In Vitro Technologies, Inc., USA). After thawing, viable hepatocytes were transferred to collagen-coated 48-well plates for attachment in plating medium (DMEM stock (Dulbecco's modified Eagle's medium, supplemented with bovine serum albumin, fructose, N-(2-hydroxyethyl)piperazine-N′-(2-ethanesulfonate) (HEPES), and sodium bicarbonate), supplemented with antibiotics, bovine serum, hydrocortisone, insulin and minimum essential medium (MEM) nonessential amino acids). After attachment to the collagen matrix, plating medium was replaced with sandwich medium (plating medium supplemented with VITROGEN) and incubated until use.
(§2) The supplemented KHB was replaced with 150 μL supplemented KHB containing the appropriate isoform-selective substrate and incubated for 4 hrs prior to termination by adding 150 μL ice-cold methanol, except for the CYP2C8 incubations which were terminated by adding 150 μL acetonitrile.
(§3) All substrates were dissolved in acetonitrile.
(§4) Replicate trials and controls were performed. […] Additionally, reference control samples were included to evaluate inducibility of CYP2B6, CYP2C9, and CYP2C19 in the test system.
(§5) Mean specific activity values with associated p-values≦0.05 were deemed to be statistically significant.

CYP2D6 [2] = target: T1, CYP2D6; assay: Inhibition of CYP2D6 activity in pooled human liver microsomes (dextromethorphan 5 μM to dextrorphan); format: in vitro ADME
Description: All other incubations were for 30 minutes.
Four replicates were performed.
Two replicates were performed.

CYP1A2 = assay: Induction/inhibition of CYP1A2 activity in cryopreserved human hepatocytes after 48 h exposure (phenacetin)
Text: as §1, §2, §3, §4, §5

[3] = Metaxalone turnover in pooled human liver microsomes without inhibitor (LC-MS/MS); conditions: for % Turnover Mean / Mean Conc. / % Turnover / Conc. / Mean metaxalone disappearance: 1 mg/mL microsomal protein; for % Turnover Mean / Mean Conc. / % Turnover / Conc.: 60 min, no inhibitor; for % Turnover / Conc.: single replicates
Description: Stocks were diluted daily in the appropriate buffers such that the final organic solvent concentration was <1%.
The reactions, in 0.1 M phosphate buffer, pH 7.4, were initiated by addition of 1 mM NADPH. Negative controls (no NADPH and heat-treated microsomes) were included to account for any non-enzymatic or non-NADPH dependent reactions. The reactions were terminated at the appropriate time points by addition of 1 volume (relative to total reaction volume) of methanol. The samples were centrifuged at approximately 3000 rpm and the clear supernatant was transferred to a clean tube and analyzed by the LC-MS/MS method described above.

[4] = 0.75 μM metaxalone, 5 pmol CYP450
[5] = 0.75 μM metaxalone, 20 pmol CYP450
[6] = 0.75 μM metaxalone, 20 pmol cyp
[7] = 7.5 μM metaxalone, 5 pmol CYP450
[8] = 7.5 μM metaxalone, 20 pmol CYP450
[9] = human, hepatocytes, 48 h, 40 μM

CYP2C9, sequence (P11712 whole entry): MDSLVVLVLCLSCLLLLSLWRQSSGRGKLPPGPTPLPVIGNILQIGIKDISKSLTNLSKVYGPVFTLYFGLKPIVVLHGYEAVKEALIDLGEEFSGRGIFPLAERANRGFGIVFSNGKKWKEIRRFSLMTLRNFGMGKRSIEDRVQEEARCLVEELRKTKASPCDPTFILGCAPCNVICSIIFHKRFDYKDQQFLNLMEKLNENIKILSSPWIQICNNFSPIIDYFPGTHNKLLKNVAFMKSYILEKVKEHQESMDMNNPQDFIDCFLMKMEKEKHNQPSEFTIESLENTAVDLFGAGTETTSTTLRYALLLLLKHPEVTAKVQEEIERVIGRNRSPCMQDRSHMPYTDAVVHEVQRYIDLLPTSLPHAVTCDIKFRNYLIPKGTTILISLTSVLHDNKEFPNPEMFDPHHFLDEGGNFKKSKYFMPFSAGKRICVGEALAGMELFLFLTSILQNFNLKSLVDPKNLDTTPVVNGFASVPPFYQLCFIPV
CYP3A4, sequence (P08684 2-503 limits assumed): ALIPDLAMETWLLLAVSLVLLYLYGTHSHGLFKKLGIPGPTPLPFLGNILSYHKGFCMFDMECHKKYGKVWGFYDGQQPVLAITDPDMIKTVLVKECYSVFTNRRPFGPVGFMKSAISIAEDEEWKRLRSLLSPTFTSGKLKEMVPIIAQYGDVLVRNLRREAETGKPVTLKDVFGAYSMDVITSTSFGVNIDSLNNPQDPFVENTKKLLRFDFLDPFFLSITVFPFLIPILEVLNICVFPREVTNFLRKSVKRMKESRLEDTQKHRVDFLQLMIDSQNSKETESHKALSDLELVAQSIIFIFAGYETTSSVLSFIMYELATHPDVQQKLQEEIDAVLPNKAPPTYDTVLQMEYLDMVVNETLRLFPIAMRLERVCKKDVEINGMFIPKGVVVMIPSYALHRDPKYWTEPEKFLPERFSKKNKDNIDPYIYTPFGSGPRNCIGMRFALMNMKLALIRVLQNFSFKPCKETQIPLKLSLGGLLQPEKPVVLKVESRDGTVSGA
T1 sequence (P10635 whole entry): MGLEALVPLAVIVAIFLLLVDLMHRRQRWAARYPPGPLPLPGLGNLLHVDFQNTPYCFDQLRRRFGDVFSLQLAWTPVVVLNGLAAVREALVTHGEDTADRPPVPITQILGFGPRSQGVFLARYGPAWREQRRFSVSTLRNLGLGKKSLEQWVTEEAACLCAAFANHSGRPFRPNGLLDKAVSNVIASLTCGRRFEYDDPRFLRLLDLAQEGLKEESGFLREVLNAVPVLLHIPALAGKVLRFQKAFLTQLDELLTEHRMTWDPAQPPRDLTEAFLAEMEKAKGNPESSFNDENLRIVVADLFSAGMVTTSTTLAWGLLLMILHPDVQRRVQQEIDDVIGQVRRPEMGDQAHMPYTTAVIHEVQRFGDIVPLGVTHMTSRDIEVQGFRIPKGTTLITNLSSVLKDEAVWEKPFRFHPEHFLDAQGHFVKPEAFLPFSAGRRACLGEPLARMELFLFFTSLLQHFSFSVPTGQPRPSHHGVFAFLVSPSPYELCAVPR
CYP2E1, sequence (P05181 whole entry): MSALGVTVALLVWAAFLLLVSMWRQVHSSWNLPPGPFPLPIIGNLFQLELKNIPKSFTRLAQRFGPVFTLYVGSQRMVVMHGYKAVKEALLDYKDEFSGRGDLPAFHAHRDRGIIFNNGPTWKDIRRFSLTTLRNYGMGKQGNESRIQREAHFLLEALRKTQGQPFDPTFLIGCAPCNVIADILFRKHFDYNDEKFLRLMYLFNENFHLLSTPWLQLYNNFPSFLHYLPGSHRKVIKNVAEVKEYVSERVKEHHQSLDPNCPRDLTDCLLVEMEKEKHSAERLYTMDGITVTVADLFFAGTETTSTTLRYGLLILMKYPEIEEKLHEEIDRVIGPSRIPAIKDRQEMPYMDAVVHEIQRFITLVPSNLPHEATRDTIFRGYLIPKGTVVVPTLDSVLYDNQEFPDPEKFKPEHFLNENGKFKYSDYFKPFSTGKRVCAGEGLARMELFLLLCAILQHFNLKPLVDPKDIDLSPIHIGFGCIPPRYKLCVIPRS

Cc1cc(C)cc(OCC2CNC(=O)O2)c1 (stereo not drawn) [metaxalone, 5-[(3,5-dimethylphenoxy)methyl]-2-oxazolidinone]
percent turnover (CYP2E1; [4]): 11.3% | % Turnover Mean (CYP2E1; 0.75 μM metaxalone, 5 pmol cyp): 11.3% | [metaxalone] Mean (CYP2E1; 0.75 μM metaxalone, 5 pmol cyp): 0.631 µM | % Turnover % (CYP2E1; 0.75 μM metaxalone, 5 pmol cyp): 2.7% and 15.1% and 16.3% | [metaxalone] (CYP2E1; 0.75 μM metaxalone, 5 pmol cyp): 0.693 µM and 0.604 µM and 0.596 µM | percent turnover (CYP2E1; [5]): 16.2% | % Turnover Mean (CYP2E1; [6]): 16.2% | [metaxalone] Mean (CYP2E1; [6]): 0.597 µM | % Turnover % (CYP2E1; [6]): 14.6% and 12.6% and 21.3% | [metaxalone] (CYP2E1; [6]): 0.608 µM and 0.622 µM and 0.560 µM | percent turnover (CYP2E1; [7]): 18.4% | % Turnover Mean (CYP2E1; 7.5 μM metaxalone, 5 pmol cyp): 18.4% | [metaxalone] Mean (CYP2E1; 7.5 μM metaxalone, 5 pmol cyp): 6.29 µM | % Turnover % (CYP2E1; 7.5 μM metaxalone, 5 pmol cyp): 16.9% and 16.7% and 21.7% | [metaxalone] (CYP2E1; 7.5 μM metaxalone, 5 pmol cyp): 6.41 µM and 6.42 µM and 6.04 µM | percent turnover (CYP2E1; [8]): 17.2% | % Turnover Mean (CYP2E1; 7.5 μM metaxalone, 20 pmol cyp): 17.2% | [metaxalone] Mean (CYP2E1; 7.5 μM metaxalone, 20 pmol cyp): 6.39 µM | % Turnover % (CYP2E1; 7.5 μM metaxalone, 20 pmol cyp): 18.0% and 19.0% and 14.5% | [metaxalone] (CYP2E1; 7.5 μM metaxalone, 20 pmol cyp): 6.33 µM and 6.25 µM and 6.60 µM | Substrate (CYP2E1; CYP isozyme 2E1, summary of studies): + | % Turnover Mean (CYP2C9; 0.75 μM metaxalone, 5 pmol cyp): 1.6% | [metaxalone] Mean (CYP2C9; 0.75 μM metaxalone, 5 pmol cyp): 0.779 µM | % Turnover % (CYP2C9; 0.75 μM metaxalone, 5 pmol cyp): 6.1% and 5.4% and −6.8% | [metaxalone] (CYP2C9; 0.75 μM metaxalone, 5 pmol cyp): 0.743 µM and 0.749 µM and 0.845 µM | % Turnover Mean (CYP2C9; [6]): 2.4% | [metaxalone] Mean (CYP2C9; [6]): 0.772 µM | % Turnover % (CYP2C9; [6]): 8.7% and 4.0% and −5.4% | [metaxalone] (CYP2C9; [6]): 0.722 µM and 0.760 µM and 0.834 µM | % Turnover Mean (CYP2C9; 7.5 μM metaxalone, 5 pmol cyp): 7.9% | [metaxalone] Mean (CYP2C9; 7.5 μM metaxalone, 5 pmol cyp): 7.78 µM | % Turnover % (CYP2C9; 7.5 μM metaxalone, 5 pmol cyp): 14.3% and 2.9% and 6.4% | [metaxalone] (CYP2C9; 7.5 μM metaxalone, 5 pmol cyp): 7.24 µM and 8.20 µM and 7.90 µM | % Turnover Mean (CYP2C9; 7.5 μM metaxalone, 20 pmol cyp): 3.7% | [metaxalone] Mean (CYP2C9; 7.5 μM metaxalone, 20 pmol cyp): 8.13 µM | % Turnover % (CYP2C9; 7.5 μM metaxalone, 20 pmol cyp): −1.1% and 1.6% and 10.7% | [metaxalone] (CYP2C9; 7.5 μM metaxalone, 20 pmol cyp): 8.54 µM and 8.31 µM and 7.54 µM | Substrate (CYP2C9; CYP isozyme 2C9, summary of studies): + | percent turnover (CYP3A4; [4]): 17.9% | % Turnover Mean (CYP3A4; 0.75 μM metaxalone, 5 pmol cyp): 17.9% | [metaxalone] Mean (CYP3A4; 0.75 μM metaxalone, 5 pmol cyp): 0.585 µM | % Turnover % (CYP3A4; 0.75 μM metaxalone, 5 pmol cyp): 20.3% and 18.3% and 15.0% | [metaxalone] (CYP3A4; 0.75 μM metaxalone, 5 pmol cyp): 0.567 µM and 0.582 µM and 0.605 µM | percent turnover (CYP3A4; [5]): 34.0% | % Turnover Mean (CYP3A4; [6]): 34.0% | [metaxalone] Mean (CYP3A4; [6]): 0.470 µM | % Turnover % (CYP3A4; [6]): 31.7% and 39.0% and 31.4% | [metaxalone] (CYP3A4; [6]): 0.486 µM and 0.434 µM and 0.488 µM | percent turnover (CYP3A4; [7]): 16.6% | % Turnover Mean (CYP3A4; 7.5 μM metaxalone, 5 pmol cyp): 16.6% | [metaxalone] Mean (CYP3A4; 7.5 μM metaxalone, 5 pmol cyp): 6.43 µM | % Turnover % (CYP3A4; 7.5 μM metaxalone, 5 pmol cyp): 17.5% and 16.7% and 15.7% | [metaxalone] (CYP3A4; 7.5 μM metaxalone, 5 pmol cyp): 6.36 µM and 6.43 µM and 6.50 µM | percent turnover (CYP3A4; [8]): 32.4% | % Turnover Mean (CYP3A4; 7.5 μM metaxalone, 20 pmol cyp): 32.4% | [metaxalone] Mean (CYP3A4; 7.5 μM metaxalone, 20 pmol cyp): 5.22 µM | % Turnover % (CYP3A4; 7.5 μM metaxalone, 20 pmol cyp): 34.3% and 32.8% and 30.0% | [metaxalone] (CYP3A4; 7.5 μM metaxalone, 20 pmol cyp): 5.07 µM and 5.18 µM and 5.40 µM | Substrate (CYP3A4; CYP isozyme 3A4, summary of studies): + | Inducer/Inhibitor (CYP2D6 [1]): − | Percent of VC (CYP2D6 [1]; Donor 3, Metaxalone 0.4 μM): 98.8% | Percent of VC (CYP2D6 [1]; Donor 3, Metaxalone 4 μM): 89.8% | Specific Activity Mean ± SD (CYP2D6 [1]; Donor 3, Metaxalone 4 μM): 0.533 ± 0.0146 pmol/min/million cells | CYP2D6 activity (CYP2D6 [1]; hepatocytes): below the lower limit of quantitation | Percent of VC (CYP2D6 [1]; human, 48 h, 4 μM): 100% | effect on CYP2D6 activity (CYP2D6 [1]; [9]): significantly reduced CYP2D6 activity | inhibition of CYP activity at a statistically significant level (CYP2D6 [2]; 0.3-100 μM metaxalone, p≦0.05): inhibited | Inhibitor (CYP2D6 [2]; CYP isozyme 2D6, summary of studies): + | Percent of VC (CYP2D6 [2]; metaxalone 0.3 μM): 81.3% | Specific Activity Individual (CYP2D6 [2]; metaxalone 0.3 μM): 39.5 pmol/min/mg protein and 39.2 pmol/min/mg protein and 40.5 pmol/min/mg protein | Specific Activity Mean ± SD (CYP2D6 [2]; metaxalone 0.3 μM): 39.8 ± 0.688 pmol/min/mg protein | Percent of VC (CYP2D6 [2]; metaxalone 1 μM): 84.2% | Specific Activity Individual (CYP2D6 [2]; metaxalone 1 μM): 42.4 pmol/min/mg protein and 41.3 pmol/min/mg protein | Specific Activity Mean ± SD (CYP2D6 [2]; metaxalone 1 μM): 41.2 ± 1.28 pmol/min/mg protein | Percent of VC (CYP2D6 [2]; metaxalone 3 μM): 89.3% | Specific Activity Individual (CYP2D6 [2]; metaxalone 3 μM): 43.0 pmol/min/mg protein and 44.8 pmol/min/mg protein | Specific Activity Mean ± SD (CYP2D6 [2]; metaxalone 3 μM): 43.7 ± 0.940 pmol/min/mg protein | Percent of VC (CYP2D6 [2]; metaxalone 30 μM): 85.1% | Specific Activity Individual (CYP2D6 [2]; metaxalone 30 μM): 41.4 pmol/min/mg protein and 42.6 pmol/min/mg protein and 40.9 pmol/min/mg protein | Specific Activity Mean ± SD (CYP2D6 [2]; metaxalone 30 μM): 41.6 ± 0.893 pmol/min/mg protein | Percent of VC (CYP2D6 [2]; metaxalone 100 μM): 85.9% | Specific Activity Individual (CYP2D6 [2]; metaxalone 100 μM): 42.6 pmol/min/mg protein and 41.3 pmol/min/mg protein and 42.2 pmol/min/mg protein | Specific Activity Mean ± SD (CYP2D6 [2]; metaxalone 100 μM): 42.0 ± 0.680 pmol/min/mg protein | Inducer/Inhibitor (CYP1A2): + | Percent of VC (CYP1A2; Donor 2, Metaxalone 40 μM): 197% | Acetaminophen formation Adjusted Mean ± SD (CYP1A2; human, 4 h, 40 μM): 0.0589 ± 0.00795 µM | Acetaminophen formation Adjusted Mean ± SD (CYP1A2; human, 48 h, 4 μM): 0.0443 ± 0.000214 µM | effect on CYP1A2 activity (CYP1A2; [9]): induced CYP1A2 activity | % Turnover Mean ([3]; 0.75 μM metaxalone): 29.8% | Mean Conc. ([3]; 0.75 μM metaxalone): 0.542 µM | % Turnover ([3]; 0.75 μM metaxalone): 30.5% and 27.3% and 31.5% | Conc. ([3]; 0.75 μM metaxalone): 0.536 µM and 0.561 µM and 0.529 µM | Mean metaxalone disappearance ([3]; 0.75 μM metaxalone, 60 minutes): 29.8±1.3% | % Turnover Mean ([3]; 7.5 μM metaxalone): 24.6% | Mean Conc. ([3]; 7.5 μM metaxalone): 6.42 µM | % Turnover ([3]; 7.5 μM metaxalone): 24.8% and 23.9% and 25.1% | Conc. ([3]; 7.5 μM metaxalone): 6.40 µM and 6.48 µM and 6.38 µM | Mean metaxalone disappearance ([3]; 7.5 μM metaxalone, 60 minutes): 24.6±0.3% | maximum turnover ([3]; 60 minutes, 1 mg/mL protein, NADPH-dependent): 38.0%
